Experimental data as given in patent publication US20210015793A1, “COMPOUNDS FOR TREATING CNS- AND NEURODEGENERATIVE DISEASES” (ETH ZURICH, priority 2018, published 2021).

Tests used:
[1] = Serum concentration by HPLC in dogs after oral dosing; assay type: in vivo, dog; conditions: for steady-state serum concentrations of Compound-1 and Compound-1F compared: 28 days once daily oral dosing, 24 h after the last dose; for oral bioavailability: oral treatment; for dog dose roughly equivalent to 8 mg/kg/day in mice (by steady-state serum concentration): mice given compound in drinking water, dogs 28 days once daily oral dosing
Protocol: (§1) Dog serum concentrations of Compound-1, Compound-1F and Compound-4 were determined with serum isolated from the blood of German shepherd dogs (age: 8-9 months) taken at different time points (2 h, 4 h, 6 h, 8, 10 h, 24 h) after oral drug intake. The steady-state serum concentrations of Compound-1, Compound-1F and Compound-4 were determined in mice with blood isolated at the end of the study by cardiac puncture. Serum proteins were removed by acetonitrile precipitation, and compounds were extracted by chloroform before separation on an HPLC-C18 column (Poroshell 120 EC-C18, Agilent) with an HPLC system (Agilent 1100 Series) and detection at OD 280 nm, for Compound-1 and Compound-1F. Detection of Compound-4 was performed at OD 310 nm. The same extraction method was also used to determine Compound-1F in the serum of healthy human research participants. Dog hematology and biochemical parameters were determined by the Center of Applied Analytical and Veterinary Studies, Cairo, Egypt. ECG and blood pressure were measured by Dr. Mohamed Elsaed, Electrocardiography Unit, Faculty of Veterinary Medicine, Cairo University. The study was approved by the ethical committee of the Center of Applied and Veterinary Studies, Cairo, Egypt. Clinical laboratory parameters of human research participants were determined by the Rabaa El Adaweya Medical Central Hospital, Cairo, Egypt.

[2] = 28-day repeated oral dosing safety in German shepherd dogs; assay type: in vivo, dog; conditions: for sedation / ECG: P-R interval, QRS interval and Q-T interval before vs after treatment / blood levels of AST, ALT, ALP, BUN and fasting blood glucose / hematologic parameters (Hb, HCT, RBCs, MCV, MCHC) before vs after treatment / total number of white blood cells / systolic and diastolic blood pressure / heart rate / tolerability: dogs; for ECG: P-R interval, QRS interval and Q-T interval before vs after treatment / blood levels of AST, ALT, ALP, BUN and fasting blood glucose / hematologic parameters (Hb, HCT, RBCs, MCV, MCHC) before vs after treatment / total number of white blood cells: once daily 60, 120 and 200 mg for 28 days; for systolic and diastolic blood pressure: once daily 60, 120 and 200 mg/d for 28 days; for heart rate: repeated oral dosing for 28 days; for tolerability: therapeutic dose range; for body weight: male and female dogs, once daily 20, 60, 120 and 200 mg/d for 28 days
Protocol: as §1

[3] = system: female B6 mice; experiment: Aging-induced decrease in fertility in female B6 mice; assay type: in vivo, mouse; conditions: 8 mg/kg/d in drinking water from 3 to 21 months of age, vs untreated controls
Protocol: (A,B) Treatment of B6 mice with Compound-1 (A) and Compound-1F (B) at a daily dose of 8 mg/kg/d in drinking water was started at an age of 3 months and continued until the end of the observation period at 21 months. The age of the male breeder(s) was <10 months. The number of offspring per month is given (±s.d.; n=5; p=0.0167 for Compound-1, and p=0.0032 for Compound-1F compared to untreated controls; unpaired, two-tailed Student's t-test).

[4] = system: Mpp1; experiment: Immunoblot of Mpp1 protein content in PBMN cells of aged B6 mice; assay type: in vivo, mouse; conditions: 18-month-old B6 mice treated for 15 months in drinking water
From the text: (§2) For protein separation by SDS-PAGE (Laemmli system), the protein pellet can be dissolved in SDS-PAGE sample buffer supplemented with SDS. As an alternative, sample buffer for native gel electrophoresis can be added. According to the original protocol, the SDS-PAGE Laemmli sample buffer contains 2% SDS, 0.1 M DTT (or 5% mercaptoethanol). To improve disaggregation of aggregated proteins, the buffer can be supplemented without or with urea ranging from about 0 M-8 M, preferably about 6 M urea and incubated for about 10 min to 24 h, preferably about 90 min at room temperature. Proteins can be stored frozen (about […]) at a concentration ranging from about 0.01-100 mg/ml, preferably about 0.5 mg-1 mg/ml, for further use. It may be further desirable to dilute the solubilisate, for example, diluting the supernatant solubilisate by 1:1-1:20, preferably 1:5, in a suitable buffer as described above (preferably supplemented with protease inhibitors). Before immunoblot detection of proteins, proteins are separated. For separation of proteins, one- or two-dimensional SDS-PAGE can be applied. […]

[5] = system: MPP1; experiment: Immunoblot of MPP1 content in PBMN cells of elderly human research participants; assay type: in vivo; conditions: 28 days, daily dose of 60 mg
From the text: as §2

[6] = dogs, oral gavage, single dose of 60 mg

| SMILES | steady-state serum concentrations of Compound-1 and Compound-1F compared ([1]; dogs) | oral bioavailability ([1]; dogs) | dog dose roughly equivalent to 8 mg/kg/day in mice (by steady-state serum concentration) [1] [mg/kg day] | sedation ([2]; daily dose of 120 mg/d) | sedation ([2]; highest dose of 200 mg) | ECG: P-R interval, QRS interval and Q-T interval before vs after treatment [2] | blood levels of AST, ALT, ALP, BUN and fasting blood glucose [2] | hematologic parameters (Hb, HCT, RBCs, MCV, MCHC) before vs after treatment [2] | total number of white blood cells [2] | systolic and diastolic blood pressure [2] | heart rate [2] | tolerability [2] | body weight [2] | female fertility (number of offspring per month) [3] | Mpp1 protein content in PBMN cells [4] | also measured |
| --- | --- | --- | --- | --- | --- | --- | --- | --- | --- | --- | --- | --- | --- | --- | --- | --- |
| O=C(C1=C(O)C(c2ccccc2)N(c2ccc3c(c2)OCO3)C1=O)C1CC1 (stereo not shown) [Compound-1, 1-(1,3-benzodioxol-5-yl)-4-(cyclopropane-carbonyl)-3-hydroxy-2-phenyl-2H-pyrrol-5-one] | comparable | good oral bioavailability | ~0.7 | no sedation | showed sedation | not significantly different | did not significantly alter | not significantly different | not altered | did not significantly change systolic and diastolic blood pressure | did not significantly affect heart rate | excellent tolerability | did not significantly change body weight | retarded aging-induced decrease in fertility | significantly decreased the content of the senescence marker, Mpp1 | dose dependence of peak serum concentration ([1]; dogs, 28 days repeated once daily dosing, 20, 60, 200 mg/day): dose-dependent increase in the peak serum concentration; time to peak serum concentration ([1]; dogs, day 28 of repeated once daily dosing, 20, 60 and 200 mg/day): 4 h; peak serum concentration [1, 6]: 2 µg/mL; time to peak serum concentration [1, 6]: 4 h; time to peak serum concentration ([1]; dogs, oral gavage, single dose of 200 mg): 6 h |
| O=C(C1=C(O)C(c2ccc(F)cc2)N(c2ccc3c(c2)OCO3)C1=O)C1CC1 (stereo not shown) [Compound-1F, 1-(1,3-Benzodioxol-5-yl)-4-(cyclopropanecarbonyl)-2-(4-fluorophenyl)-3-hydroxy-2H-pyrrol-5-one] | comparable | good oral bioavailability | ~0.7 | no sedation | showed sedation | not significantly different | did not significantly alter | not significantly different | not altered | did not significantly change systolic and diastolic blood pressure | did not significantly affect heart rate | excellent tolerability | did not significantly change body weight | retarded aging-induced decrease in fertility | significantly decreased the content of the senescence marker, Mpp1 | pharmacokinetic profile compared to Compound-1 ([1]; dogs, oral): slower on-rate; senescence marker protein MPP1 in PBMN cells vs before treatment [5]: significant decrease |
